Patent US20260240842A1, “METHODS TO PREVENT THERAPY RESISTANCE IN MELANOMA VIA BLOCKING GENOMIC INSTABILITY” (THE REGENTS OF THE UNIVERSITY OF CALIFORNIA, priority 2022, published 2026)

Legend:
[1] = system: human BRAF^V600MUT (M229, M249, M395) or NRAS^Q61MUT (M202, M207, M245) melanoma cell lines; assay: Long-term clonogenic growth: emergence of acquired MAPKi-resistant colonies (DTPPs) in parental melanoma cell lines under MAPKi; format: cell-based; details: parental cell lines, FIG. 11C to 11E and FIG. 12
Experimental: FIGS. 4A-4U. DNA-PKi and/or PARPi co-treatment prevents acquired MAPKi-resistance in human melanoma cell lines. FIGS. 4A to 4O: Long-term clonogenic growth of isogenic parental and acquired MAPKi-resistant BRAF^V600MUT (4A to 4H) or NRAS^Q61MUT (4I to 4O) human melanoma cell lines showing acquired-resistant colonies to BRAFi+MEKi (PLX4032 at 0.5 mM, AZD6244 at 0.5 mM in 4A and 4G; PLX4032 at 0.25 mM, AZD6244 at 0.25 mM in 4D; PLX4032 at 1 mM, AZD6244 at 1 mM in 4B, 4C, 4E, 4F and 4H) or MEKi (trametinib at 0.005 mM in I and 0.01 mM in 4J and 4N; trametinib at 0.1 mM in 4K, 4M and 4O) and their suppression by indicated co-treatments with DNA-PKi (NU7026) and/or PARPi (ABT888) at indicated concentrations. Top, representative cultures; bottom, quantifications over n=4 fields (mean±SD). Data representative of 2 to 4 independent repeats. Seeding densities (cells/well in 6-well dishes) and culture durations (days): (4A) 5,000; 31, (4B) 1,000; 17, (4C) 5,000; 18, (4D) 40,000; 40, (4E) 5,000; 14, (4F) 5,000; 12, (4G) 20,000; 30, (4H) 20,000; 21, (4I) 40,000; 30, (4J) 50,000; 31, (4K) 5,000; 17, (4L) 5,000; 22, (4M) 5,000; 16, (4N) 20.000; 16, and (4O) 5,000; 16. Data representative of 2 to 4 independent repeats. FIGS. 4P and 4Q: Western blot, MTT assay (upper), and clonogenic growth assay (lower) of M245 cells transduced by lentivirus harboring shVector control or shRNAs of PRKDC (4P) or LIG4 (4Q). TUBULIN, loading control. Clonogenic growth with vehicle (14 days, 5,000 cells/well in 6-well dishes) or MEKi (29 days, 50,000 cells/well in 6-well dishes) treatments. MEKi, trametinib at 0.01 μM. Representative results of two independent experiments; quantification of n=4 fields (mean±SD). FIGS. 4R and 4S: As in 4A and 4J, respectively, except DNA-PKi and/or PARPi co-treatments were performed in M229 (4R) and M245 (4S) at a later stage of MAPKi treatment (see timepoint schema). Inhibitor concentrations for M229: BRAFi+MEKi (PLX4032 at 0.5 μM, AZD6244 at 0.5 μM), NU7026 (8 μM), ABT888 (4 μM) and NU7026+ABT888 (4 μM+4 μM). Inhibitor concentrations for M245: MEKi (trametinib at 0.01 μM), NU7026 (5 μM), ABT888 (1 μM) and NU7026+ABT888 (5 μM+1 μM). Left, representative cultures; right, quantifications over n=4 fields (mean±SD). Data representative of 2 independent repeats. FIGS. 4T and 4U: As in 4A and 4J, respectively, except DNA-PKi and/or PARPi co-treatments were performed in M229 (4T) and M245 cells (4U) at the same concentrations in R and S for the entire durations (day 1-28 in 4T; day 1-30 in 4U), the first half (day 1-14 in T; day 1-15 in 4U) or the second half (day 14-28 in 4T: day 15-30 in 4U) of the total treatment course. Top, representative cultures; bottom, quantifications over n=4 fields (mean±SD). Data representative of 2 independent repeats. P values (one-way ANOVA followed by Tukey's multiple comparison test) comparing indicated cultures versus MAPKi-only cultures (4A to 4O and 4R to 4U) or shVector culture (4P and 4Q): *, p<0.05; **, p<0.01: ***, p<0.001.
FIGS. 12A-12F. DNA-PKi and/or PARPi co-treatment prevents acquired MAPKi-resistance in human melanoma cell lines. FIGS. 12A to 12F: Long-term clonogenic growth of BRAF^V600MUT (12A, 12C and 12E) or NRAS^Q61MUT (12B, 12D and 12F) cell lines showing acquired-resistant colonies to BRAFi+MEKi (PLX4032 at 0.5 mM, AZD6244 at 0.5 mM for M229 and M395; PLX4032 at 0.25 mM, AZD6244 at 0.25 mM for M249) or MEKi (trametinib at 0.005 mM for M202 and 0.01 mM for M207 and M245) and their suppression by indicated co-treatments with DNA-PKi (VX984 in 12A and 12B; AZD7648 in 12C and 12D) and/or PARPi (olaparib in 12E and 12F) at indicated concentrations. Top, representative cultures; bottom, quantifications over n=4 fields (mean±SD). Data representative of 2 independent repeats. Seeding densities (cells/well in 6-well dishes) and culture durations (days): M202 (40,000, 30), M207 (20,000, 16), M229 (5,000, 32), M245 (50,000, 31), M249 (40,000, 40), and M395 (20,000, 30). […]

γH2AX = assay: Immunofluorescence of γH2AX nuclear foci in early on-treatment PDX tumors; format: in vivo, NSG mice; details: short-term MEKi treatment in Mel_PDX1; FIG. 13G
Source text: FIGS. 13A-13H. In vivo impacts of DNA-PKi when combined with MAPKi. FIGS. 13A and 13B: Long-term follow-up of tumor volumes (13A, BRAFi+MEKi, n=5 tumors; BRAFi+MEKi+DNA-PKi, n=6 tumors) (13B, MEKi, n=6 tumors; MEKi+DNAP-PKi, n=6 tumors) and average mice body weights for 13A and 13B. Related to experiments in FIGS. 7B and 7E, respectively. FIGS. 13C and 13D, Tumor volumes (mean±SEM) of two examples of tumor models treated short-term with vehicle or indicated single versus combined agents. Inhibitors and dosages are identical to those in FIGS. 7C and 7E, respectively. The numbers of tumors and their sizes are shown in the photographs (right) taken at the times of tumor harvest (end points). FIGS. 13E to 13G: Immunofluorescence of p-ERK (13E), p-DNA-PKcs (S2056) (13F), or γH2AX (13G) levels in Mel_PDX1 tumor model, treated with vehicle or indicated single versus combined agents for 11 days (shown in 13C). DAPI, nuclear stain. Scale bar, 50 μm (13E) and 20 μm (13F and 13G). Representative images shown for two tumors analyzed per group. Quantification of p-DNA-PKcs signals obtained by taking the average of positively stained foci per nucleus (13F, representative of 4 fields). Quantification of γH2AX signals analyzed either by percentage of cells with γH2AX foci or percentage of cells with greater than 5 γH2AX foci (13G, representative of 4 fields). […]

Compound | combinatorial efficacy of next-generation DNA-PKi and PARPi with MAPKi [1] | tumor cells with gH2AX nuclear foci (γH2AX)
O=C(c1cc(Cc2n[nH]c(=O)c3ccccc23)ccc1F)N1CCN(C(=O)C2CC2)CC1 [olaparib] | corroborated the combinatorial efficacy | –
CC(=O)Nc1cccc(-n2c(=O)n(C3CC3)c(=O)c3c(Nc4ccc(I)cc4F)n(C)c(=O)c(C)c32)c1 [trametinib] | – | > 50%
Cc1cc2ncnn2cc1Nc1ncc2c(n1)n(C1CCOCC1)c(=O)n2C [AZD7648] | corroborated the combinatorial efficacy | –
